Experimental data published in the supplement of paper PMC8253809.

Assays:
DIPGX7 = H3.3 K27M diffuse intrinsic pontine glioma line; assay: growth inhibition relative to DMSO (0) and positive control (1) (fraction); higher = more growth inhibition
Method: (§1)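 Paxalisib (GDC0084) x mirdametinib (PD0325901) dose matrix on pHGG cell lines and astrocyte controls, 7 days, adherent 384-well. CellTiter-Glo RLU was normalised (no log2) to fractional activity between DMSO (0) and the positive control (1). Each combination was tested in two plate orientations.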

DIPGX37 = H3.3 K27M diffuse intrinsic pontine glioma line; assay: as above
Method: as §1

O=C(NOC[C@H](O)CO)c1ccc(F)c(F)c1Nc1ccc(I)cc1F + CC1(C)OCCn2c1nc1c(N3CCOCC3)nc(-c3cnc(N)nc3)nc12 [GDC0084]
growth inhibition
Conditions	compound 1 concentration 0.009766 µM	compound 1 concentration 0.01953 µM	compound 1 concentration 0.03906 µM	compound 1 concentration 0.07812 µM	compound 1 concentration 0.15625 µM	compound 1 concentration 0.3125 µM	compound 1 concentration 0.625 µM	compound 1 concentration 1.25 µM	compound 1 concentration 5 µM	compound 1 concentration 20 µM
DIPGX7, compound 2 concentration 0.03906 µM	-0.0325	-0.0312	-0.0934	-0.145	-0.164	-0.126	-0.119	0.0102	0.288	0.312
DIPGX7, compound 2 concentration 0.07812 µM	0.189	0.113	0.0974	0.0816	-0.0134	0.0326	0.0363	0.178	0.344	0.313
DIPGX7, compound 2 concentration 0.15625 µM	0.43	0.379	0.335	0.264	0.267	0.238	0.296	0.364	0.563	0.467
DIPGX7, compound 2 concentration 0.3125 µM	0.611	0.641	0.589	0.561	0.514	0.483	0.563	0.627	0.793	0.747
DIPGX7, compound 2 concentration 0.625 µM	0.781	0.802	0.8	0.791	0.779	0.782	0.841	0.884	0.941	0.918
DIPGX7, compound 2 concentration 1.25 µM	0.874	0.865	0.876	0.884	0.893	0.906	0.934	0.96	0.982	0.983
DIPGX7, compound 2 concentration 5 µM	0.937	0.933	0.938	0.962	0.972	0.98	0.99	0.999	1	1
DIPGX7, compound 2 concentration 20 µM	0.977	0.987	0.989	0.994	0.998	1	1	1	1	1
DIPGX37, compound 2 concentration 0.03906 µM	-0.0653	-0.109	0.00889	0.0388	0.199	0.341	0.484	0.642	0.948	0.988
DIPGX37, compound 2 concentration 0.07812 µM	0.157	0.133	0.163	0.275	0.352	0.487	0.599	0.725	0.959	0.993
DIPGX37, compound 2 concentration 0.15625 µM	0.264	0.281	0.316	0.412	0.485	0.618	0.728	0.829	0.983	0.997
DIPGX37, compound 2 concentration 0.3125 µM	0.446	0.454	0.5	0.586	0.657	0.767	0.859	0.926	0.997	1
DIPGX37, compound 2 concentration 0.625 µM	0.589	0.585	0.62	0.71	0.777	0.871	0.937	0.97	1	1
DIPGX37, compound 2 concentration 1.25 µM	0.75	0.791	0.815	0.864	0.908	0.951	0.976	0.996	1	1
DIPGX37, compound 2 concentration 5 µM	0.965	0.975	0.988	0.995	0.999	1	1	1	1	1
DIPGX37, compound 2 concentration 20 µM	0.996	0.998	0.998	0.996	0.998	0.997	0.997	0.997	0.998	1

CC1(C)OCCn2c1nc1c(N3CCOCC3)nc(-c3cnc(N)nc3)nc12 [GDC0084] + O=C(NOC[C@H](O)CO)c1ccc(F)c(F)c1Nc1ccc(I)cc1F [PD0325901]
growth inhibition
Conditions	compound 1 concentration 0.009766 µM	compound 1 concentration 0.01953 µM	compound 1 concentration 0.03906 µM	compound 1 concentration 0.07812 µM	compound 1 concentration 0.15625 µM	compound 1 concentration 0.3125 µM	compound 1 concentration 0.625 µM	compound 1 concentration 1.25 µM	compound 1 concentration 5 µM	compound 1 concentration 20 µM
DIPGX7, compound 2 concentration 0.03906 µM	-0.121	-0.103	-0.085	0.0493	0.217	0.56	0.762	0.886	0.945	0.998
DIPGX7, compound 2 concentration 0.07812 µM	-0.0496	9.09e-05	0.0209	0.0495	0.252	0.537	0.775	0.88	0.956	0.997
DIPGX7, compound 2 concentration 0.15625 µM	-0.0185	0.0149	0.038	0.0769	0.248	0.507	0.771	0.891	0.965	0.999
DIPGX7, compound 2 concentration 0.3125 µM	-0.0519	0.0198	0.0847	0.101	0.248	0.522	0.802	0.91	0.983	1
DIPGX7, compound 2 concentration 0.625 µM	0.0193	0.0541	0.102	0.141	0.301	0.534	0.825	0.938	0.992	1
DIPGX7, compound 2 concentration 1.25 µM	0.138	0.158	0.168	0.231	0.351	0.606	0.868	0.961	0.998	1
DIPGX7, compound 2 concentration 5 µM	0.215	0.278	0.311	0.354	0.555	0.784	0.933	0.986	1	1
DIPGX7, compound 2 concentration 20 µM	0.18	0.195	0.238	0.323	0.539	0.765	0.933	0.988	1	1
DIPGX37, compound 2 concentration 0.03906 µM	-0.147	-0.0916	-0.0557	0.033	0.217	0.429	0.588	0.762	0.979	1
DIPGX37, compound 2 concentration 0.07812 µM	-0.0133	0.012	0.0971	0.209	0.356	0.514	0.694	0.823	0.99	1
DIPGX37, compound 2 concentration 0.15625 µM	0.0798	0.113	0.192	0.297	0.433	0.58	0.744	0.879	0.999	1
DIPGX37, compound 2 concentration 0.3125 µM	0.186	0.271	0.3	0.445	0.556	0.699	0.84	0.924	1	1
DIPGX37, compound 2 concentration 0.625 µM	0.277	0.368	0.441	0.522	0.6	0.787	0.891	0.948	1	1
DIPGX37, compound 2 concentration 1.25 µM	0.458	0.508	0.592	0.657	0.743	0.882	0.953	0.984	1	1
DIPGX37, compound 2 concentration 5 µM	0.832	0.876	0.906	0.917	0.94	0.986	1	1	1	1
DIPGX37, compound 2 concentration 20 µM	0.97	0.98	0.984	0.994	0.997	1	1	1	1	1
